# Results published in PubChem BioAssay (NCI).
#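 Five compound concentrations were applied to cells in 96-well plates for 48 hours; endpoints were derived by simple linear interpolation of the resulting dose-response curve. The concentration for 50% growth inhibition is given as GI50. TGI: total growth inhibition.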
# Tests used:
# Assay in all cases: NCI-60 cell line screen, 48 h
# 786-0 renal = system: 786-0 renal
# A498 renal = system: A498 renal
# A549 NSCLC = system: A549 NSCLC
# ACHN renal = system: ACHN renal
# BT-549 breast = system: BT-549 breast
# CAKI-1 renal = system: CAKI-1 renal
# CCRF-CEM leukemia = system: CCRF-CEM leukemia
# COLO 205 colon = system: COLO 205 colon
# DU-145 prostate = system: DU-145 prostate
# EKVX NSCLC = system: EKVX NSCLC
# HCT-116 colon = system: HCT-116 colon
# HCT-15 colon = system: HCT-15 colon
# HL-60(TB) leukemia = system: HL-60(TB) leukemia
# HOP-62 NSCLC = system: HOP-62 NSCLC
# HOP-92 NSCLC = system: HOP-92 NSCLC
# HS 578T breast = system: HS 578T breast
# HT29 colon = system: HT29 colon
# IGROV1 ovarian = system: IGROV1 ovarian
# K-562 leukemia = system: K-562 leukemia
# KM12 colon = system: KM12 colon
# LOX IMVI melanoma = system: LOX IMVI melanoma
# M14 melanoma = system: M14 melanoma
# MCF7 breast = system: MCF7 breast
# MDA-MB-231 breast = system: MDA-MB-231 breast
# MDA-MB-435 = system: MDA-MB-435
# MOLT-4 leukemia = system: MOLT-4 leukemia
# NCI-H226 lung = system: NCI-H226 lung
# NCI-H23 lung = system: NCI-H23 lung
# NCI-H460 lung = system: NCI-H460 lung
# NCI/ADR-RES ovarian = system: NCI/ADR-RES ovarian
# OVCAR-3 ovarian = system: OVCAR-3 ovarian
# OVCAR-4 ovarian = system: OVCAR-4 ovarian
# OVCAR-5 ovarian = system: OVCAR-5 ovarian
# OVCAR-8 ovarian = system: OVCAR-8 ovarian
# PC-3 prostate = system: PC-3 prostate
# RPMI-8226 leukemia = system: RPMI-8226 leukemia
# RXF 393 renal = system: RXF 393 renal
# SF-268 CNS = system: SF-268 CNS
# SF-295 CNS = system: SF-295 CNS
# SF-539 CNS = system: SF-539 CNS
# SK-MEL-2 melanoma = system: SK-MEL-2 melanoma
# SK-MEL-28 melanoma = system: SK-MEL-28 melanoma
# SK-MEL-5 melanoma = system: SK-MEL-5 melanoma
# SK-OV-3 ovarian = system: SK-OV-3 ovarian
# SN12C renal = system: SN12C renal
# SNB-19 CNS = system: SNB-19 CNS
# SNB-75 CNS = system: SNB-75 CNS
# SW-620 colon = system: SW-620 colon
# T-47D breast = system: T-47D breast
# TK-10 renal = system: TK-10 renal
# U251 CNS = system: U251 CNS
# UACC-257 melanoma = system: UACC-257 melanoma
# UACC-62 melanoma = system: UACC-62 melanoma
smiles,measurement,setting,value
CC1=C2[C@H]3OC(=O)[C@@H](C)[C@@H]3CC[C@@]2(C)C=CC1=O,GI50,786-0 renal,> 100 µM
same,TGI,786-0 renal,> 100 µM
same,GI50,A498 renal,> 100 µM
same,TGI,A498 renal,> 100 µM
same,GI50,A549 NSCLC,> 100 µM
same,TGI,A549 NSCLC,> 100 µM
same,GI50,ACHN renal,> 100 µM
same,TGI,ACHN renal,> 100 µM
same,GI50,BT-549 breast,> 100 µM
same,TGI,BT-549 breast,> 100 µM
same,GI50,CAKI-1 renal,> 100 µM
same,TGI,CAKI-1 renal,> 100 µM
same,GI50,CCRF-CEM leukemia,> 100 µM
same,TGI,CCRF-CEM leukemia,> 100 µM
same,GI50,COLO 205 colon,> 100 µM
same,TGI,COLO 205 colon,> 100 µM
same,GI50,DU-145 prostate,> 100 µM
same,TGI,DU-145 prostate,> 100 µM
same,GI50,EKVX NSCLC,> 100 µM
same,TGI,EKVX NSCLC,> 100 µM
same,GI50,HCT-116 colon,> 100 µM
same,TGI,HCT-116 colon,> 100 µM
same,GI50,HCT-15 colon,> 100 µM
same,TGI,HCT-15 colon,> 100 µM
same,GI50,HL-60(TB) leukemia,> 100 µM
same,TGI,HL-60(TB) leukemia,> 100 µM
same,GI50,HOP-62 NSCLC,> 100 µM
same,TGI,HOP-62 NSCLC,> 100 µM
same,GI50,HOP-92 NSCLC,> 100 µM
same,TGI,HOP-92 NSCLC,> 100 µM
same,GI50,HS 578T breast,> 100 µM
same,TGI,HS 578T breast,> 100 µM
same,GI50,HT29 colon,> 100 µM
same,TGI,HT29 colon,> 100 µM
same,GI50,IGROV1 ovarian,> 100 µM
same,TGI,IGROV1 ovarian,> 100 µM
same,GI50,K-562 leukemia,> 100 µM
same,TGI,K-562 leukemia,> 100 µM
same,GI50,KM12 colon,> 100 µM
same,TGI,KM12 colon,> 100 µM
same,GI50,LOX IMVI melanoma,> 100 µM
same,TGI,LOX IMVI melanoma,> 100 µM
same,GI50,M14 melanoma,> 100 µM
same,TGI,M14 melanoma,> 100 µM
same,GI50,MCF7 breast,> 100 µM
same,TGI,MCF7 breast,> 100 µM
same,GI50,MDA-MB-231 breast,> 100 µM
same,TGI,MDA-MB-231 breast,> 100 µM
same,GI50,MDA-MB-435,> 100 µM
same,TGI,MDA-MB-435,> 100 µM
same,GI50,MOLT-4 leukemia,> 100 µM
same,TGI,MOLT-4 leukemia,> 100 µM
same,GI50,NCI-H226 lung,> 100 µM
same,TGI,NCI-H226 lung,> 100 µM
same,GI50,NCI-H23 lung,> 100 µM
same,TGI,NCI-H23 lung,> 100 µM
same,GI50,NCI-H460 lung,> 100 µM
same,TGI,NCI-H460 lung,> 100 µM
same,GI50,NCI/ADR-RES ovarian,> 100 µM
same,TGI,NCI/ADR-RES ovarian,> 100 µM
same,GI50,OVCAR-3 ovarian,> 100 µM
same,TGI,OVCAR-3 ovarian,> 100 µM
same,GI50,OVCAR-4 ovarian,> 100 µM
same,TGI,OVCAR-4 ovarian,> 100 µM
same,GI50,OVCAR-5 ovarian,> 100 µM
same,TGI,OVCAR-5 ovarian,> 100 µM
same,GI50,OVCAR-8 ovarian,> 100 µM
same,TGI,OVCAR-8 ovarian,> 100 µM
same,GI50,PC-3 prostate,> 100 µM
same,TGI,PC-3 prostate,> 100 µM
same,GI50,RPMI-8226 leukemia,> 100 µM
same,TGI,RPMI-8226 leukemia,> 100 µM
same,GI50,RXF 393 renal,> 100 µM
same,TGI,RXF 393 renal,> 100 µM
same,GI50,SF-268 CNS,> 100 µM
same,TGI,SF-268 CNS,> 100 µM
same,GI50,SF-295 CNS,> 100 µM
same,TGI,SF-295 CNS,> 100 µM
same,GI50,SF-539 CNS,> 100 µM
same,TGI,SF-539 CNS,> 100 µM
same,GI50,SK-MEL-2 melanoma,> 100 µM
same,TGI,SK-MEL-2 melanoma,> 100 µM
same,GI50,SK-MEL-28 melanoma,> 100 µM
same,TGI,SK-MEL-28 melanoma,> 100 µM
same,GI50,SK-MEL-5 melanoma,> 100 µM
same,TGI,SK-MEL-5 melanoma,> 100 µM
same,GI50,SK-OV-3 ovarian,> 100 µM
same,TGI,SK-OV-3 ovarian,> 100 µM
same,GI50,SN12C renal,> 100 µM
same,TGI,SN12C renal,> 100 µM
same,GI50,SNB-19 CNS,> 100 µM
same,TGI,SNB-19 CNS,> 100 µM
same,GI50,SNB-75 CNS,> 100 µM
same,TGI,SNB-75 CNS,> 100 µM
same,GI50,SW-620 colon,> 100 µM
same,TGI,SW-620 colon,> 100 µM
same,GI50,T-47D breast,> 100 µM
same,TGI,T-47D breast,> 100 µM
same,GI50,TK-10 renal,> 100 µM
same,TGI,TK-10 renal,> 100 µM
same,GI50,U251 CNS,> 100 µM
same,TGI,U251 CNS,> 100 µM
same,GI50,UACC-257 melanoma,> 100 µM
same,TGI,UACC-257 melanoma,> 100 µM
same,GI50,UACC-62 melanoma,> 100 µM
same,TGI,UACC-62 melanoma,> 100 µM
